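Step 1: Grow cells in 96-well plates. Step 2: Expose to compound for 48 hours at 5 concentrations. Step 3: Interpolate endpoints linearly; if unreached, use highest concentration. Here, GI50 denotes the concentration required for 50% inhibition of growth. TGI: concentration producing complete growth inhibition.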
Columns and labels:
Assay in all cases: DTP human tumour cell line panel, 48 h
A549 NSCLC = test system: A549 NSCLC
HCC-2998 colon = test system: HCC-2998 colon
U251 CNS = test system: U251 CNS
MOLT-4 leukemia = test system: MOLT-4 leukemia
SNB-75 CNS = test system: SNB-75 CNS
K-562 leukemia = test system: K-562 leukemia
UACC-62 melanoma = test system: UACC-62 melanoma
HOP-92 NSCLC = test system: HOP-92 NSCLC
TK-10 renal = test system: TK-10 renal
RXF 393 renal = test system: RXF 393 renal

SMILES	TGI (A549 NSCLC)	TGI (HCC-2998 colon)	TGI (U251 CNS)	TGI (MOLT-4 leukemia)	TGI (SNB-75 CNS)	TGI (K-562 leukemia)	TGI (UACC-62 melanoma)	TGI (HOP-92 NSCLC)	TGI (TK-10 renal)	TGI (RXF 393 renal)	GI50 (A549 NSCLC)	GI50 (HCC-2998 colon)	GI50 (U251 CNS)	GI50 (MOLT-4 leukemia)	GI50 (SNB-75 CNS)	GI50 (K-562 leukemia)	GI50 (UACC-62 melanoma)	GI50 (HOP-92 NSCLC)	GI50 (TK-10 renal)	GI50 (RXF 393 renal)
O=C(Nc1ccc(Cl)c(Cl)c1)OCCN1c2ccccc2Sc2ccccc21	> 10 µM	> 10 µM	> 10 µM	> 10 µM	> 10 µM	> 10 µM	> 10 µM	> 10 µM	> 10 µM											
CC1=C(/C=C/C(C)=C/C=C/C(C)=C/CO)C(C)(C)CCC1	45.5 µM	36.2 µM	39 µM	44.4 µM		> 100 µM	45.9 µM			28.3 µM										
C=CS(=O)(=O)CCN1CC1	> 10 µM	> 10 µM	> 10 µM	> 10 µM	> 10 µM	> 10 µM	> 10 µM	> 10 µM	> 10 µM											
O=S(=O)(NCCNc1nccc(-c2c(-c3ccc(F)cc3)nc3sccn23)n1)c1ccccc1	> 100 µM	> 100 µM	26.9 µM	57.5 µM	56.2 µM	> 100 µM	23.2 µM	8.14 µM	73.5 µM		1.93 µM	22.4 µM	6.45 µM	4.84 µM	1.61 µM	4.35 µM	5.13 µM	1.34 µM	9.41 µM	
COc1ccc(OC)c(Nc2nc(-c3c(C)nc4sccn34)cs2)c1	> 100 µM	> 100 µM	> 100 µM	> 100 µM	33.7 µM		> 100 µM	98.4 µM	> 100 µM	> 100 µM	> 100 µM	> 100 µM	> 100 µM	> 100 µM	3.38 µM		51.8 µM	8.63 µM	87.5 µM	36.3 µM
COc1cc(/C=C/C(=O)c2cccnc2Nc2ccc(F)cc2)cc(OC)c1OC	11.5 µM	3.45 µM	11.5 µM	9.52 µM	8.51 µM		6.58 µM	5.65 µM	9.5 µM	8.97 µM	2.66 µM	1.78 µM	2.78 µM	2.75 µM	1.93 µM		2.35 µM	1.67 µM	3.52 µM	2.81 µM
O=[N+]([O-])c1ccc(Cl)cc1C1SCc2nc3ccccc3n21 (centres undefined)	> 100 µM	> 100 µM	> 100 µM	> 100 µM	70.7 µM	> 100 µM	> 100 µM		> 100 µM	73.3 µM										
C=C1[C@@H]([C@@]2(C)C=CC(=O)C(C)(C)[C@@H]2CC(=O)OC)CC[C@@]2(C)C(c3ccoc3)OC(=O)[C@H]3O[C@]132 (some centres undefined)	> 100 µM	> 100 µM	> 100 µM	> 100 µM	> 100 µM		> 100 µM	> 100 µM	> 100 µM											
Cc1ncc([N+](=O)[O-])n1CCNC(=O)Cn1c([N+](=O)[O-])cnc1C	> 100 µM	> 100 µM	> 100 µM	> 100 µM	> 100 µM	> 100 µM	> 100 µM		> 100 µM											
COc1cc(Cl)cc(-c2nn(-c3cccc(NC(=O)Nc4ccc(Cl)c(C(F)(F)F)c4)c3)cc2-c2ccncc2)c1	10.8 µM	9.02 µM	2.11 µM	4.65 µM	11.1 µM	10.1 µM	3.54 µM			4.42 µM	0.678 µM	2.91 µM	0.729 µM	1.23 µM	1.77 µM	0.537 µM	1.27 µM			1.71 µM
COc1ccc(Nc2c3ccccc3nc3[nH]c4ccccc4c23)cc1	> 50 µM		42.8 µM	> 50 µM		> 50 µM	> 50 µM		> 50 µM	> 50 µM	8.49 µM		11.7 µM	2.35 µM		7.17 µM	16.2 µM		26.7 µM	> 50 µM
O=C1C=CC(O)C2C1CC13SSC4(CC5C(=O)C=CC(O)C5N4C1=O)C(=O)N23 (centres undefined)	10.8 µM		1.28 µM	> 100 µM	5.14 µM	> 100 µM	0.622 µM	0.573 µM	1.81 µM	1.48 µM										
CN(C)C(=S)/N=c1\ss/c(=N\S(=O)(=O)c2ccccc2)n1N(C)C	> 100 µM	> 100 µM	> 100 µM	> 100 µM	> 100 µM	> 100 µM	> 100 µM		> 100 µM	85 µM										
Cc1cc2c(cc1N)C(C)C1(CCC(=O)N2Cc2ccccc2)OCCO1 (centres undefined)	> 100 µM	> 100 µM	> 100 µM	> 100 µM	> 100 µM		> 100 µM	> 100 µM	> 100 µM											
Cc1cc2c(C)n(Cc3ccc(Cl)cc3Cl)nc2c(C(=O)O)c1C	> 100 µM	> 100 µM	> 100 µM	> 100 µM	> 100 µM		> 100 µM	> 100 µM	> 100 µM	> 100 µM										
O=C(Nc1ccn(CCI)c(=O)n1)c1ccccc1	> 100 µM		> 100 µM		> 100 µM	> 100 µM	> 100 µM	> 100 µM	> 100 µM	> 100 µM										
CN(/N=N/c1nc(OCc2ccccc2)c2[nH]cnc2n1)C(=O)Oc1ccc([N+](=O)[O-])cc1	31.6 µM		15.3 µM			> 50 µM	15.2 µM	26.6 µM	34 µM		12 µM		7.51 µM			11.9 µM	7.5 µM	7.17 µM	12 µM	
O=C1CC(c2ccc(Cl)cc2)Oc2ccccc21 (centres undefined)		55 µM	> 100 µM		50.1 µM	9.46 µM	49.8 µM	56.5 µM	63.4 µM											
CN1CC(=O)N(C)c2nc[nH]c2C1=O	> 100 µM	> 100 µM	> 100 µM	> 100 µM	> 100 µM	> 100 µM	> 100 µM		> 100 µM	> 100 µM										
COC1OC2COC(c3ccccc3)OC2C(O)C1Br (centres undefined)	> 100 µM	> 100 µM	> 100 µM	> 100 µM		> 100 µM	> 100 µM	> 100 µM	> 100 µM	> 100 µM										

From PubChem BioAssay (NCI)
